The results in this text go back to patent US20070203225A1, “METHOD OF INCREASING ENDOGENOUS ADIPONECTIN PRODUCTION AND LEPTIN PRODUCTION” (priority 2001, published 2007).

What all share (assay type): cell-based
Assay [1] relates to isolated rat adipocytes. The experiment in a line: Glucose utilization (uptake) by isolated cultured rat adipocytes. The following applies: for effect on glucose utilization (in words): insulin 0.16 to 1.6 nM. On the procedure: (§1) Cell isolation/preparation: Adipocytes are prepared from epididymal fat pads from male Sprague-Dawley rats weighing 300-600 g. Epididymal fat depots are resected from halothane anesthetized rats under aseptic conditions and adipocytes are isolated by collagenase digestion by the Rodbell method (Rodbell M. Metabolism of isolated fat cells. I. Effects of hormones on glucose metabolism and lipolysis. J Biol Chem. 1964; 239: 375-380), with minor modifications as previously described (Mueller W M, Gregoire F M, Stanhope K L, Mobbs C V, Mizuno T M, Warden C H, Stem J S, Havel P J. Evidence that glucose metabolism regulates leptin secretion from isolated adipocytes. Endocrinology 139: 551-558, 1998; Mueller W M, Stanhope K L, Gregoire F, Evans J L, Havel P J. Effects of metformin and vanadium on leptin secretion from cultured rat adipocytes. Obesity Res. 8: 530-539, 2000; Medina E A, Stanhope K L, Mizuno T M, Mobbs C V, Gregoire F, Hubbard N E, Erickson K L, Havel P J. Effects of tumor necrosis factor alpha on leptin secretion and gene expression: relationship to changes of glucose metabolism in isolated rat adipocytes. Int J Obes Relat Metab Disord. 23: 896-903, 1999.). The isolated adipocytes are then incubated for 30 minutes at 37 C before being plated and cultured on Matrigel-coated plates.
(§2) Adipocyte Culture: Adipocytes are maintained in culture anchored to a basement membrane matrix (Matrigel, Becton Dickinson, Franklin Lakes, N.J.) or collagen from Cohesion Technologies, (Palo Alto, Calif.). Although all in vitro systems have inherent advantages and disadvantages, advantages of this system compared with cultures containing free-floating adipocytes are that the matrix simulates their normal basement membrane attachment and that the cells are maintained in close proximity to each other, allowing direct cell to cell contact. Together the cell contact and basement membrane attachment help to maintain differentiation, since adipocytes have a strong tendency to dedifferentiate in long-term (>24 h) culture. In addition, the matrix and the small amount of serum in the media both contain growth factors, which are also likely to help in maintaining cell differentiation. Furthermore, the adipocytes in this system are not exposed to toxic levels of oxygen at the interface of the media and the incubator atmosphere, as opposed to free-floating adipocytes which aggregate at the surface of the media. An advantage of the system over those containing minced adipose tissue is that all of the cells in the culture are equally exposed to the nutrients and the oxygen dissolved in the media. Thus, although clearly different from the in vivo situation, this system provides a more physiological environment than most systems for maintaining adipocytes in long-term culture.
(§3) In culturing each suspension, Matrigel is first thawed on ice to a liquid and uniformly applied to the surface of culture dishes (300 μl Matrigel/35 mm well). After the incubation period, 150 μl of the adipocyte suspension (2:1 ratio of packed cells to media) are plated on the Matrigel or collagen matrix. Adipocytes from each suspension are thoroughly mixed with a transfer pipette before plating to insure that a similar number adipocytes with a similar size distribution are added to the control and experimental wells for each suspension. The warmth of the added cells and buffer causes the Matrigel to gel around the adipocytes, or the neutralization of the acidic pH of the collagen solution to 7.0 solidifies the collagen, and both of these techniques effectively anchor the adipocytes to the culture dish. After a 30 minute incubation at 37° C., 2 ml of warm culture medium is added. The cells are maintained in an incubator at 37° C. for 96 hours with 6% CO2. Aliquots of adipocytes from each animal are divided into wells, with the different concentrations of insulin or other agents to be tested. In each plate an appropriate control well contains adipocytes from the same animal. […]

The test system of assay [2] is isolated rat adipocytes. The experiment in a line: Lactate production and proportion of glucose anaerobically metabolized to lactate in isolated cultured rat adipocytes. On the procedure: as §1, §2, §3
Assay [3] concerns isolated rat adipocytes. As to the kind of experiment: Leptin secretion/production by isolated cultured rat adipocytes (RIA). On the procedure: as §1, §2, §3
Assay [4] deals with leptin promoter. The experiment in a line: Leptin promoter luciferase construct transfected into 3T3-L1 cells.
Where [5] appears, read: DTNB 100.0 μM + insulin 0.48 nM vs control (insulin only).
Where [6] appears, read: DTNB 100.0 μM + insulin 0.48 nM, isolated rat adipocytes, 96 h culture.
[7] abbreviates: DTNB 100 μM, NEM 0.1 μM, DCA 2 mM.

Entries after “also recorded” stand apart in the source; their conditions may differ.

For the compound `O=C(O)c1cc(SSc2ccc([N+](=O)[O-])c(C(=O)O)c2)ccc1[N+](=O)[O-]` [DTNB, 5,5′-Dithiobis(2-nitrobenzoate)], the “Change in Parameter: Glucose Uptake (μg) over 96 h” value in assay [1] (setting [5]) was “+348 ± 114 μg”. The “Glucose Uptake (μg) over 96 h” value in assay [1] (setting [6]) was determined as 1384 ± 94 µg. Besides, in assay [1] (setting [7]), the “effect on total / insulin-mediated glucose utilization (in words)” value was “increased”. In assay [2] (setting [5]), the “Change in Parameter: Glucose to Lactate (%)” value was −9.5 ± 1.0% and the “Change in Parameter: Lactate Produced (μg) over 96 h” value is -53 ± 25 µg. Besides, in assay [2] (setting [6]), the “Glucose to Lactate (%)” value stood at 13.1 ± 1.4% and the “Lactate Produced (μg) over 96 h” value was 179 ± 22 µg. In assay [2] (setting [7]), the “effect on glucose not converted to lactate or incorporated into TG (OTHER; glucose flux into oxidation), by subtraction (in words)” value was “increased” and the “effect on proportion of glucose anaerobically metabolized to lactate (in words)” value was “decreased”. Besides, in assay [2] (DTNB 100 μM, NEM 0.1 μM, DCA 0.1 to 5.0 mM), the “effect on lactate production (in words)” value is reported as “without any increase”. Further, in assay [3] (setting [5]), the “% ΔLeptin Produced over 96 h” value was “+57.3 ± 5.8%”, the “% Δ[Leptin] (ng/ml) at 96 h” value is given as “+60.2 ± 8.3%”, the “Change in Parameter: Leptin (ng) Produced over 96 h” value is on record as “+18.4 ± 2.3 ng” and the “Change in Parameter: [Leptin] (ng/ml) at 96 h” value was “+6.3 ± 0.8 ng/ml”. Besides, in assay [3] (setting [6]), the “Leptin (ng) Produced over 96 h” value is listed as 55.6 ± 2.9 ng and the “[Leptin] (ng/ml) at 96 h” value was 17.2 ± 0.9 ng/mL. In addition, the “effect on leptin production/secretion (in words)” value in assay [3] (PDH kinase inhibitors DTNB, NEM, DCA, cultured adipocytes) is on record as “most potent stimulator; also recorded: increase”. In addition, the “increase of leptin production/secretion” value in assay [3] (PDH kinase inhibitors vs control: DTNB 100 μM, NEM 0.1 μM, DCA 2 mM, cultured adipocytes) was “approximately 60%”.

In the case of insulin, the “effect on glucose utilization (in words)” value in assay [1] is listed as “concentration dependent increase”. Moreover, the “effect on glucose utilization (in words)” value in assay [1] (listed as Insulin) is reported as “increases”. In assay [2] (insulin 0.16 to 1.6 nM), the “effect on proportion of glucose converted to lactate (in words)” value is reported as “decreases” and the “effect on proportion of glucose not converted to lactate or triglyceride (OTHER), by subtraction (in words)” value is listed as “increases”. In assay [3] (insulin 0.16 to 1.6 nM), the “effect on leptin secretion (in words)” value was “concentration-dependent increases; also recorded: concentration dependent increase”. Further, the “effect on activity of control plasmid (in words)” value in assay [4] (insulin 10 nM, 2-DG 10 mg/dl) is “unaffected”. The “increase of leptin promoter activity” value in assay [4] (insulin 0.1 to 10 nM, n=2 each) is 3-6 fold. In assay [4] (insulin 0.1 to 10 nM, 2-DG 10 mg/dl on basal and insulin-stimulated (10 nM) activity), the “effect on leptin promoter activity (in words)” value is reported as “increases”.
